Assay results reported in patent publication US10011602B2, “Immunological reagents and uses therefor” (THE UNIVERSITY OF MELBOURNE, priority 2012, dated 2018).

Assays:
[1] = system: human MAIT cells from peripheral blood; assay: Activation of primary MAIT cells from PBMCs (CD69, IFN-γ, TNF-α); format: cell-based; settings: PBMCs with C1R cells expressing MR1
Protocol: PBMCs from a healthy donor were mixed with C1R-huMR1 cells (10^5 each/well). Salmonella SL1344 supernatant (2 μl) from cultures grown in LB supplemented with 25 μg/ml streptomycin (Sigma) for 4 hr at 37° C., or compounds (35A, 36A, 48G: 25 μg/ml final, A-6FP: 10 μM final) or PMA (2 ng/ml+ionomycin (1 ng/ml) added in a total volume of 220 μl RF-10, and incubated overnight at 37° C. Cells were stained with anti-CD3-PE-Cy7 (eBioscience, 20 μg/ml), anti-CD4-APC-Cy7 (Biolegend, 1.7 μg/ml), anti-CD161-APC (Miltenyi Biotec, 1:50), FITC-conjugated D5 (anti-MAIT TCR, 10 μg/ml) and either anti-CD69-PE (BD Biosciences 1:50), anti-IFNγ-PE (BD Pharmingen 10 μg/ml) or anti-TNFα-PE (BD Pharmingen 10 μg/ml), and analyzed by flow cytometry using a Canto II cytometer and Diva software. For intracellular cytokine staining, brefeldin A (10 μg/ml) was added to the assay after the first 1 hr and the incubation allowed to proceed overnight. Cells were fixed with 1% parformaldehyde after staining for surface markers and permeabilised with 1% saponin during cytokine stains. MAIT cells were defined as CD3^+, CD4^−, CD161^+, D5^+ after gating on PBMCs using FSC and SSC.
PBMCs from a healthy donor were mixed with C1R cells expressing MR1 (10^5 each/well). Salmonella SL1344 supernatant (2 μl) from cultures grown in LB supplemented with 25 μg/ml streptomycin (Sigma) for 4 hr at 37° C., or compounds (RL-6,7-diMe, RL-6-Me-7-OH, 6FP: 76.2 μM final, rRL-6-HM: 0.152 μM final) or PMA (2 ng/ml+ionomycin (1 ng/ml) added in a total volume of 220 μl RF-10, and incubated overnight at 37° C. Cells were stained with anti-CD3-PE-Cy7 (eBioscience, 20 μg/ml), anti-CD4-APC-Cy7 (Biolegend, 1.7 μg/ml), anti-CD161-APC (Miltenyi Biotec, 1:50), FITC-conjugated D5 (anti-MAIT TCR, 10 μg/ml) and either anti-CD69-PE (BD Biosciences 1:50), anti-IFNγ-PE (BD Pharmingen 10 μg/ml) or anti-TNFα-PE (BD Pharmingen 10 μg/ml), and analyzed by flow cytometry using a Canto II cytometer and Diva software. […] CD69 expression was analysed by flow cytometry. […]

[2] = Stability of synthesised MR1 Ags; format: physicochemical
Description: Compounds 6,7-dimethyl-8-D-ribityllumazine (1), 7-hydroxy-6-methyl-8-D-ribityllumazine (2) and a 2 electron reduced form (3) of 6-hydroxymethyl-8-D-ribityllumazine were synthesised by modifications (FIG. 64) to reported literature procedures (for review see Plaut et al 1974). Their purities were established using proton NMR spectra and reversed phase HPLC traces. In brief, D-ribitylamine (6) was produced in 55% yield from D-(−)-ribose via its oxime intermediate. Condensation with 4-chlorouracil (7) followed by nitrosation provided the key intermediate (9) in reasonable yield (27%). The diaminouracil (10) was unstable, and therefore it was generated in situ, immediately before use, by reduction of the nitroso group with sodium hydrosulfite. Condensation with the corresponding α,β-dicarbonyl reagents at the optimal pH under a nitrogen atmosphere in the dark gave the products 1 and 2 after purification by preparative HPLC. […] For dimethyl analogue 1, three equivalents of 2,3-butadione gave a much purer crude product than reported in the literature, in which 6.6 equivalents gave a significant amount of bis-adduct and made purification difficult. […] Thus prolonged reaction and work-up procedures were best avoided. In contrast, a large excess of sodium pyruvate (9-18 eq) was key for efficient production of the 7-hydroxy analogue. […]

In the case of `Cc1nc2c(=O)[nH]c(=O)nc-2n(C[C@H](O)[C@H](O)[C@H](O)CO)c1C` [Compound 1, 6,7-dimethyl-8-D-ribityllumazine], the “Activation of MAIT cells (CD69 upregulation, intracellular IFN-γ and TNF-α)” value [1] is reported as “specifically activated” and the Stability [2] is reported as “unstable, particularly in solution”.
